Measurements published in EP0427518B1, “NMDA-Blocking compounds, pharmaceutical compositions, their preparation and use” (priority 1989, dated 1991).

Columns and labels:
[1] = tested on: Sabra mice; experiment: Inhibition of tremorogenic, convulsive and lethal effects of NMDA in Sabra mice; format: in vivo
Description: Sabra mice (an Israeli heterogenous strain) were pretreated with either vehicle alone (control) or HU-211 (1.25 or 2.50 mg/kg; s.c.), followed by NMDA (200 mg/kg; s.c.). […] Similar experiments were performed using C-57 Black mice, in which the dose of NMDA was decreased (100 mg/kg; s.c.). Counteraction by HU-211 of the NMDA-induced effects was more pronounced in the latter strain (which is more sensitive than Sabra mice to the effects of NMDA). In the control series of both strains, which received NMDA without HU-211, all animals died in less than 10 min. following seizure onset.

[2] = tested on: BALB/C mice; experiment: Protection against NMDA toxicity; format: in vivo; conditions: for % alive / No.alive total / Onset time of clinical signs: NMDA 125 mg/kg s.c., 120 min post HU-211
Description: (§1) BALB/C mice (20 g) were subcutaneously injected with picrotoxin, strychnine and NMDA in doses of about LD₉₀ and subsequent clinical observations for the occurrence of convulsions and death were carried out within 20 min. The number of mice used and the mortality were assessed at the highest doses administered.

[3] = tested on: BALB/C mice; experiment: Protection against picrotoxin toxicity; format: in vivo; conditions: Picrotoxin 4 mg/kg s.c.; vehicle Emulsion; HU-211 10 mg/kg; 120 min post HU-211
Description: as §1

[4] = tested on: Sabra mice; experiment: Locomotor activity (body displacement over 7-cm squares); format: in vivo; conditions: HU-211 2.5 mg/kg s.c., mean ±SEM
Excerpt: As will be shown hereafter, the pharmacological profile of HU-211, and other compounds constituting the active ingredients of the present compositions, includes the induction of stereotypy, locomotor hyper-activity and tachycardia in mice (Table 1). […] This possibility was explored by examining the activity of the compounds in protecting against the tremorogenic, convulsive and lethal effects of NMDA and NMDA agonists in mice. Such effects are counteracted by virtually all NMDA antagonists.

[5] = tested on: NMDA receptor; experiment: Equilibrium binding of [³H]TCP to well-washed rat brain cortical membranes
[6] = Sabra mice, HU-211 2.5 mg/kg s.c. 75 min prior to NMDA 200 mg/kg s.c.
[7] = vehicle Emulphor, HU-211 5 mg/kg
[8] = vehicle Emulsion, HU-211 5 mg/kg
[9] = vehicle Emulsion, HU-211 10 mg/kg

## CCCCCCC(C)(C)c1cc(O)c2c(c1)OC(C)(C)[C@H]1CC=C(CO)C[C@H]21 [HU-211, (+)-(3S,4S)-1,1-dimethylheptyl homolog of 7-hydroxy-Δ⁶-tetrahydrocannabinol]
[1]; Sabra mice pretreated with HU-211 (2.5 mg/kg s.c.), NMDA 200 mg/kg s.c.
  mice that exhibited no tremors or seizures and stayed alive for more than four days following NMDA administration: two of the five
[1]; [6]
  Time until death: 20.2 ± 7.0 min
  Time until first seizure: 18.0 ± 7.0 min
  Time until first tremor: 8.2 ± 1.3 min
[2]; HU-211 carried in the Emulsion versus the Emulphor preparation
  protection against NMDA toxicity, Emulsion compared with Emulphor preparation: better protection
[2]; [7]
  % alive: 20%
  No.alive total: 2/10
  Onset time of clinical signs: 19 min
[2]; [8]
  % alive: 60%
  No.alive total: 4/7
  Onset time of clinical signs: 7 min
[2]; [9]
  % alive: 80%
  No.alive total: 8/10
  Onset time of clinical signs: 10 min
[3]
  % alive: 50%
  No.alive total: 4/8
  Onset time of clinical signs: 54 min
[4]; time 0 min, score = squares crossed
  Locomotor Activity: 32.0±6.0
[4]; time 15 min
  Locomotor Activity: 45.0±2.0
[4]; time 30 min
  Locomotor Activity: 37.0±4.04
[4]; time 45 min
  Locomotor Activity: 28.0±13.0
[4]; time 60 min
  Locomotor Activity: 17.0±7
[5]; 100 »M HU-211
  equilibrium binding of 5 nM [³H]TCP: not inhibited
[5]; in the presence of HU-211 10 »M, 2-100 nM [³H]TCP, 1 »M glutamate and 1 »M glycine (control 3.4)
  maximum binding capacity of [3H]TCP: 3.5 pmol/mg protein
